“Also recorded” adds a separate entry of the source.
Tests used:
[1] = tested on: HCC827 subcutaneous xenograft; details: s.c. HCC827 tumours, n=5/group, Erlotinib 25 mg/kg po QD
Method: (§1) Tumour measurements and body weights were taken 3 times weekly and treatment initiated when the tumours reached a mean volume of ˜200 mm^3 (n=5 per group).
(§2) Mice were anaesthetised and transported to the SARRP where CBCT (cone beam computed tomography) images were acquired. Using the MuriSlice software the isocenter of the tumour was identified and aligned with the central axis of the beam. […] A tolerability was performed initially to evaluate 3 Gy/day×5 days for 2 week.

[2] = tested on: HCC827-ER1 subcutaneous xenograft; details: s.c. HCC827-ER1 tumors, n=5/group
Method: as §1, §2

SMILES	effect on tumor volume, drug alone [1]	tumor growth inhibition compared with vehicle/control ([2]; drug alone, p<0.001, Erlotinib 25 mg/kg po QD) [%]	tumor regression, drug combined with irradiation [2]	tumor regression, drug alone ([2]; drug alone)
C[C@@H](Oc1cc(-c2cnn(C3CCNCC3)c2)cnc1N)c1c(Cl)ccc(F)c1Cl [Crizotinib, 3-[(1R)-1-(2,6-dichloro-3-fluorophenyl)ethoxy]-5-(1-piperidin-4-ylpyrazol-4-yl)pyridin-2-amine]	no effect	~60	tumour regression was restored; also recorded: tumor regression was restored	–
C#Cc1cccc(Nc2ncnc3cc(OCCOC)c(OCCOC)cc23)c1 [Erlotinib, N-(3-ethynylphenyl)-6,7-bis(2-methoxyethoxy) quinazolin-4-amine]	–	–	tumour regression was restored; also recorded: tumor regression was restored	no tumour regression; also recorded: no tumor regression
